Data reported in patent US20260217652A1, “PHENYL-SUBSTITUTED HETEROARYL COMPOUND AND PHARMACEUTICAL COMPOSITION COMPRISING SAME, PREPARATION METHOD THEREFOR AND USE THEREOF” (SHANGHAI MEIYUE BIOTECH DEVELOPMENT CO., LTD., priority 2023, published 2026).

These compounds were tested against T1, p38 MAPK/MK2 (Homo sapiens, UniProt Q16539) (assay: In vitro activity assay of p38 MAPK/MK2 (Z-LYTE kinase assay kit)). Conditions: active p38α, inactive MK2, Ser/Thr 4; 1-hour reaction at 20° C.
T1 construct: purchased Carna (p38α); Abcam (MK2) 04-152; 79910
Type: biochemical
Procedure: The inhibitory effect of the compound on p38 MAPK/MK2 was evaluated using the Z-LYTE kinase assay kit (Thermo, PV3177). The test compound was dissolved in DMSO to obtain a 10 mM stock solution and stored at −20° C. for future use. The initial concentration of the compound was […], with 1% DMSO, 5-fold serial dilution, 8 concentrations, and duplicate wells. […] After a 1-hour reaction at 20° C., Development Reagent A diluted 2048-fold was added to each well, followed by incubation at room temperature for 1 hour. The reaction was terminated by adding 5 μL of stop buffer, and the plate was read using a microplate reader (Ex. 400 nm, Em. 445 nm; Ex. 400 nm, Em. 520 nm). The concentration-effect curve was fitted using GraphPad Prism 8 software, and the compound concentration resulting in 50% inhibition, IC50, was calculated.

T1 sequence (Q16539 whole entry): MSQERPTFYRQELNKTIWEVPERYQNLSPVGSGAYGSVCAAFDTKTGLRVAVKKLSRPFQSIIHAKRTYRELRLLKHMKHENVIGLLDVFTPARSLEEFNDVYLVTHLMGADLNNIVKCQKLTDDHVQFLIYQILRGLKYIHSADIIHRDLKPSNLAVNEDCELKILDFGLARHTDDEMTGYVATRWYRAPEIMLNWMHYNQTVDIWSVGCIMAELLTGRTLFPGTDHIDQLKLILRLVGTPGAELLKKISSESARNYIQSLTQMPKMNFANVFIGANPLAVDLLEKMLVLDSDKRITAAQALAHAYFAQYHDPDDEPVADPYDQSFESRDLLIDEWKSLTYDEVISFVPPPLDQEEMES
T1 sequence (P49137 whole entry partner): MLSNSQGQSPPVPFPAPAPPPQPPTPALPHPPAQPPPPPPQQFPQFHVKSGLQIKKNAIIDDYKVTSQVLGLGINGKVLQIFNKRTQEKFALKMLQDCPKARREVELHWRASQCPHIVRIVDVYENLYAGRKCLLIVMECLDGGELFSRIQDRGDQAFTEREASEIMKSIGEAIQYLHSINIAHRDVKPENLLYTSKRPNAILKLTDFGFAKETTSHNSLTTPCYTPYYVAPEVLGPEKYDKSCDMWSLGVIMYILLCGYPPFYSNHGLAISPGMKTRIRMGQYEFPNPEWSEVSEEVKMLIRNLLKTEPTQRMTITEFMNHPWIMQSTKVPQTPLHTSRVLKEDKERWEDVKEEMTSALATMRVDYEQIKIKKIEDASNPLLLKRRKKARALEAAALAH

Compared with `CNC(=O)C(C)(O)c1cccc(-c2cc(-n3c(C)cc(OCc4ncc(F)cc4F)c(Cl)c3=O)c(C)cn2)c1F` (single isomer, unassigned) [Compound 121-P2], `Cc1cnc(-c2cccc(C(C)(O)C(N)=O)c2F)cc1-n1c(C)cc(OCc2ncc(F)cc2F)c(Cl)c1=O` (single isomer, unassigned) [Compound 126-P3] is 10-fold lower in IC50: 2.83 nM for the first, 0.28 nM for the second. The second is the more potent here.

First: Cc1cc(OCc2ncc(F)cc2F)c(Cl)c(=O)n1-c1ccnc(-c2ccc(F)c(C(C)(C)O)c2F)c1 [Compound 142]
Second: Cc1cc(OCc2ncc(F)cc2F)c(Cl)c(=O)n1-c1ccnc(-c2ccc(F)c([C@@](C)(O)CO)c2F)c1 [Compound 144]
The IC50 of the first is 3.7-fold lower: 3.37 nM for the first, 12.6 nM for the second. The first is the more potent here.

First: CNC(=O)C(C)(O)c1cccc(-c2cc(-n3c(C)cc(OCc4ncc(F)cc4F)c(Cl)c3=O)c(C)cn2)c1F (single isomer, unassigned) [Compound 121-P1]
Second: Cc1cnc(-c2cccc(C(C)(O)C(N)=O)c2F)cc1-n1c(C)cc(OCc2ncc(F)cc2F)c(Cl)c1=O (single isomer, unassigned) [Compound 126-P1]
The IC50 of the first is 4.1-fold higher: 6.81 nM for the first, 1.68 nM for the second. The second is the more potent here.

First: Cc1cnc(-c2ccc(Cl)c([C@](C)(O)CO)c2)c(F)c1-n1c(C)cc(OCc2ncc(F)cc2F)c(Cl)c1=O [Compound 53-1]
Second: Cc1cnc(-c2ccc(Cl)c([C@@](C)(O)CO)c2)c(F)c1-n1c(C)cc(OCc2ncc(F)cc2F)c(Cl)c1=O [Compound 53-2]
The IC50 of the first is 2.5-fold lower: 1.2 nM for the first, 3.02 nM for the second.

First: Cc1ccc(-c2ncc(C)c(-n3c(C)cc(OCc4ncc(F)cc4F)c(Cl)c3=O)c2F)cc1[C@@](C)(O)CO [Compound 52-P1]
Second: Cc1cnc(-c2ccc(F)c([C@@](C)(O)CO)c2)c(F)c1-n1c(C)cc(OCc2ncc(F)cc2F)c(Cl)c1=O (single isomer, unassigned) [Compound 51-P1]
The IC50 of the first is 15-fold lower: 0.12 nM for the first, 1.83 nM for the second.

Going from `Cc1cnc(-c2cccc([C@](C)(O)CO)c2F)cc1-n1c(C)cc(OCc2ncc(F)cc2F)c(Cl)c1=O` [Compound 35-P2] to `Cc1cnc(-c2cccc(C(C)(O)CO)c2F)cc1-n1c(C)cc(OCc2ncc(F)cc2F)c(Cl)c1=O` (centres unmarked) [Compound 35], the IC50 rises from 0.71 nM to 2.39 nM (3.4-fold). The first is the more potent here.

Going from `Cc1cnc(-c2ccc3c(c2)C(C)(O)C(=O)N3)c(F)c1-n1c(C)cc(OCc2ncc(F)cc2F)c(Cl)c1=O` (single isomer, unassigned) [Compound 115-P1] to `Cc1cnc(-c2ccc3c(c2)C(C)(C)NC3=O)c(F)c1-n1c(C)cc(OCc2ncc(F)cc2F)c(Cl)c1=O` [Compound 129], the IC50 rises from 0.14 nM to 19.9 nM (140-fold).

Compared with `COc1cnc(-c2cccc(C(C)(C)O)c2F)cc1-n1c(C)cc(OCc2ncc(F)cc2F)c(Cl)c1=O` [Compound 155], `COc1cnc(-c2cccc([C@@](C)(O)CO)c2F)cc1-n1c(C)cc(OCc2ncc(F)cc2F)c(Cl)c1=O` [Compound 154] is 5.9-fold higher in IC50: 3.49 nM for the first, 20.6 nM for the second.

`Cc1cnc(-c2cccc(C(=O)N3CC(C)(O)C3)c2)cc1-n1c(C)cc(OCc2ncc(F)cc2F)c(Cl)c1=O` [Compound 10] and `Cc1cnc(-c2cccc(C(=O)NO)c2)cc1-n1c(C)cc(OCc2ncc(F)cc2F)c(Cl)c1=O` [Compound 5] are within 1.5-fold of each other in IC50: 60.5 nM for the first, 90.3 nM for the second.

Compared with `COC[C@](C)(O)c1cccc(-c2cc(-n3c(C)cc(OCc4ncc(F)cc4F)c(Cl)c3=O)c(C)cn2)c1F` [Compound 148-P1], `CNCC(C)(O)c1cccc(-c2cc(-n3c(C)cc(OCc4ncc(F)cc4F)c(Cl)c3=O)c(C)cn2)c1F` (centres unmarked) [Compound 150] is 1.9-fold lower in IC50: 15.9 nM for the first, 8.59 nM for the second.

First: Cc1cnc(-c2ccc3c(c2)C(C)(O)C(=O)N3)c(F)c1-n1c(C)cc(OCc2ncc(F)cc2F)c(Cl)c1=O (single isomer, unassigned) [Compound 115-P2]
Second: Cc1cnc(-c2cccc(C3(O)CC3)c2)c(F)c1-n1c(C)cc(OCc2ncc(F)cc2F)c(Cl)c1=O [Compound 136]
The IC50 of the first is 37-fold lower: 0.7 nM for the first, 26.2 nM for the second.

Compared with `Cc1cnc(-c2ccc(F)c(C(C)(O)C(=O)O)c2)c(F)c1-n1c(C)cc(OCc2ncc(F)cc2F)c(Cl)c1=O` (centres unmarked) [Compound 138-1], `CNCC(C)(O)c1cc(-c2ncc(C)c(-n3c(C)cc(OCc4ncc(F)cc4F)c(Cl)c3=O)c2F)ccc1F` (centres unmarked) [Compound 139] is 44-fold higher in IC50: 1.21 nM for the first, 53 nM for the second.

First: Cc1cnc(-c2cccc([C@@](C)(O)CO)c2)cc1-n1c(C)cc(OCc2ncc(F)cc2F)c(Cl)c1=O [Compound 87-P1]
Second: Cc1cnc(-c2cccc([C@](C)(O)CO)c2Cl)cc1-n1c(C)cc(OCc2ncc(F)cc2F)c(Cl)c1=O [Compound 37-1]
The IC50 of the first is 1.8-fold higher: 8.54 nM for the first, 4.66 nM for the second. The second is the more potent here.

Compared with `Cc1cnc(-c2cccc(C3(O)CC3)c2F)cc1-n1c(C)cc(OCc2ncc(F)cc2F)c(Cl)c1=O` [Compound 135], `Cc1cnc(-c2cccc(C(N)=O)c2F)cc1-n1c(C)cc(OCc2ncc(F)cc2F)c(Cl)c1=O` [Compound 21-P2] is 25-fold lower in IC50: 13 nM for the first, 0.51 nM for the second.

First: Cc1cnc(-c2ccc3c(c2F)C(C)(C)NC3=O)cc1-n1c(C)cc(OCc2ncc(F)cc2F)c(Cl)c1=O [Compound 134]
Second: Cc1cnc(-c2cccc(C(C)(C)O)c2F)cc1-n1c(C)cc(OCc2ncc(F)cc2F)c(Cl)c1=O [Compound 101]
The IC50 of the first is 43-fold higher: 39.9 nM for the first, 0.93 nM for the second. The second is the more potent here.

First: CC[C@](O)(CO)c1cccc(-c2cc(-n3c(C)cc(OCc4ncc(F)cc4F)c(Cl)c3=O)c(C)cn2)c1F [Compound 147]
Second: Cc1cnc(-c2cccc(C(C)(C)O)c2O)cc1-n1c(C)cc(OCc2ncc(F)cc2F)c(Cl)c1=O [Compound 102]
The IC50 of the first is 53-fold higher: 7.94 nM for the first, 0.15 nM for the second.

First: Cc1cnc(-c2cc([C@@](C)(O)CO)ccc2Cl)c(F)c1-n1c(C)cc(OCc2ncc(F)cc2F)c(Cl)c1=O [Compound 107-P1]
Second: Cc1cnc(-c2cc([C@@](C)(O)CO)ccc2F)c(F)c1-n1c(C)cc(OCc2ncc(F)cc2F)c(Cl)c1=O [Compound 106-P1]
The IC50 of the first is 1.5-fold lower: 4.99 nM for the first, 7.73 nM for the second.

Going from `Cc1cnc(-c2ccc(F)c([C@](C)(O)CO)c2F)cc1-n1c(C)cc(OCc2ncc(F)cc2F)c(Cl)c1=O` (single isomer, unassigned) [Compound 65-P2] to `Cc1cnc(-c2ccc(F)c([C@@](C)(O)CO)c2F)cc1-n1c(C)cc(OCc2ncc(F)cc2F)c(Cl)c1=O` (single isomer, unassigned) [Compound 65-2], the IC50 rises from 0.4 nM to 1.86 nM (4.7-fold).

Going from `Cc1cnc(-c2cccc([C@](C)(O)CO)c2Cl)c(F)c1-n1c(C)cc(OCc2ncc(F)cc2F)c(Cl)c1=O` [Compound 62-P1] to `Cc1cnc(-c2cccc([C@@](C)(O)CO)c2Cl)c(F)c1-n1c(C)cc(OCc2ncc(F)cc2F)c(Cl)c1=O` [Compound 62-P3], the IC50 falls from 0.35 nM to 0.058 nM (6-fold).

Compared with `Cc1cc(OCc2ncc(F)cc2F)c(Cl)c(=O)n1-c1ccnc(-c2cccc([C@@](C)(O)CO)c2F)c1` [Compound 143], `Cc1cc(OCc2ncc(F)cc2F)c(Cl)c(=O)n1-c1ccnc(-c2cccc(C3(CO)CC3)c2F)c1` [Compound 156] is 54-fold lower in IC50: 18.1 nM for the first, 0.336 nM for the second.

Compared with `CNC(=O)C(C)(O)c1c(F)ccc(-c2cc(-n3c(C)cc(OCc4ncc(F)cc4F)c(Cl)c3=O)c(C)cn2)c1F` (single isomer, unassigned) [Compound 116-P4], `Cc1cnc(-c2ccc(F)c(C(C)(O)C(N)=O)c2F)cc1-n1c(C)cc(OCc2ncc(F)cc2F)c(Cl)c1=O` (single isomer, unassigned) [Compound 125-P1] is 2.9-fold higher in IC50: 0.14 nM for the first, 0.41 nM for the second.

Going from `CNC(=O)c1cc(-c2cc(-n3c(C)cc(OCc4ncc(F)cc4F)c(Cl)c3=O)c(C)cn2)ccc1F` [Compound 17] to `CNC(=O)C(C)(O)c1c(F)ccc(-c2cc(-n3c(C)cc(OCc4ncc(F)cc4F)c(Cl)c3=O)c(C)cn2)c1F` (single isomer, unassigned) [Compound 116-P2], the IC50 falls from 87.9 nM to 2.26 nM (39-fold). The second is the more potent here.

Going from `COC[C@](C)(O)c1c(F)ccc(-c2cc(-n3c(C)cc(OCc4ncc(F)cc4F)c(Cl)c3=O)c(C)cn2)c1F` (atropisomer, axis not shown) [Compound 149] to `Cc1cnc(-c2ccc(F)c([C@](C)(O)CO)c2F)cc1-n1c(C)cc(OCc2ncc(F)cc2F)c(Cl)c1=O` (single isomer, unassigned) [Compound 65-1], the IC50 falls from 2.25 nM to 1.27 nM (1.8-fold). The second is the more potent here.

Compared with `Cc1cnc(-c2ccc(F)c(C(C)(O)C(N)=O)c2F)cc1-n1c(C)cc(OCc2ncc(F)cc2F)c(Cl)c1=O` (single isomer, unassigned) [Compound 125-P3], `Cc1cnc(-c2cc(F)cc([C@](C)(O)CO)c2F)cc1-n1c(C)cc(OCc2ncc(F)cc2F)c(Cl)c1=O` [Compound 110-1] is 6.9-fold higher in IC50: 0.28 nM for the first, 1.94 nM for the second.

Going from `Cc1cnc(-c2cccc(C(=O)NOCCO)c2)cc1-n1c(C)cc(OCc2ncc(F)cc2F)c(Cl)c1=O` [Compound 7] to `Cc1cnc(-c2cc(F)cc([C@@](C)(O)CO)c2F)cc1-n1c(C)cc(OCc2ncc(F)cc2F)c(Cl)c1=O` [Compound 110-P1], the IC50 falls from 87.5 nM to 0.7 nM (130-fold). The second is the more potent here.
